Patent publication US4260630A, “Skin diseases” (priority 1977, dated 1981)

Experiments:
yeast DNA [1] = assay: Melting and reassociation (cross-link formation) of yeast DNA treated in vitro plus 365 nm light; assay type: biochemical
Experimental: Measurement of the melting and reassociation characteristics of yeast DNA:
Biophys. […] The fractions containing the nuclear DNA were pooled and dialysed against a 0.1 M, pH 7 phosphate buffer. […] Unirradiated samples of DNA with or without the drugs were taken as references.
The cross-links formation of the two furocoumarins with native yeast DNA was tested by measuring the denaturation and renaturation pattern.

yeast RNA = assay: Photobinding to yeast RNA in vivo (radiolabelled drug plus 365 nm light); assay type: binding, Saccharomyces cerevisiae; conditions: for cpm for 10^8 cells: RNA; for Molecules 8-MOP/μg DNA / μg 8-MOP/μg DNA: binding to RNA
Experimental: (§1) The radioactivity of an aliquot (0.1 ml) of this solution was measured in 5 ml of scintillation mixture (Nuclear Entreprise, Ltd., Edinburgh, Scotland, NE 250).
(§2) For the in vivo determinations stationary phase cells of the haploid wild type strain N 123 were prepared as previously described.
(§3) 2 ml cell suspensions were exposed to several doses of 365 nm light. In parallel, non irradiated samples were incubated for the same periods. Immediately after incubation and/or irradiation, the samples were centrifuged and the pellet was washed 3 times with 5 ml of saline (0.9% NaCl). The washed cell pellet was resuspended in 1 ml of saline and 1 ml of 2 N NaOH was added in order to hydrolyze the RNA. The suspension was incubated overnight in the dark at room temperature, then cooled down on ice, and 2 ml of 50% TCA were added slowly. The samples were left 20 minutes on ice and the precipitated DNA was filtered on a glass fiber filter disc (Whatman GF/A, 2.1 cm diameter). In some cases the filtrate containing the acid-soluble material was kept aside, and the radioactivity of an aliquot added to 5 ml of NE250 scintillation mixture measured. The precipitate was washed 3 times with 5 ml of 5% cold TCA and 5 ml of 70% ethanol. The filters were then dried and the radioactivity measured in plastic counting vials containing 5 ml of scintillation mixture (NE 250) in a Tricarb Packard scintillation spectrophotometer.

Saccharomyces cerevisiae [2] = assay: Induction of cytoplasmic "petite" mutations in yeast; conditions: compared at the same survival level (10%)
Experimental: (§4) A wild-type strain 211-1aM (29) of Saccharomyces cerivisiae was used, and the following mutants derived from it: S24-12c rad2-20 deficient in excision repair and S25-13b rad9-4 likely to be blocked in a recombinational repair pathway; a double mutant S 2057NL-24 rad2-20 -rad9-4 clone B was obtained by tetrad analysis of a heterozygote [formula]
(§5) The media and culture conditions used were as described in D. Averbeck, E. Moustacchi, (1975) Biochim. Biophys. Acta, 395, 393-404.
(§6) 10^6 cells/ml in saline (0.9% NaCl) were treated for 30 minutes with the drugs at a final concentration of 10 μg/ml and 1.2% ethanol present.
A Philips HPW 125 culot Edison high pressure mercury lamp was used with maximal output at the wavelength 365 nm. The irradiation dose measured by actinometry was 10 J/m^2 per sec., using the following set up: 10 ml of actinometer solution (or the cell suspension, usually 1×10^6 cells/ml), stirred continuously by a magnetic stirrer, were irradiated at room temperature in an open Petri dish of 10 cm diameter at a distance of 10 cm from the center of the light bulb which was mounted horizontally. A 2 mm thick pyrex glass sheet (20×25 cm) was placed in the center of the light beam to cut out UV light of wavelength below 340 nm. […]

yeast DNA [3] = assay: Photobinding to yeast DNA in vivo (radiolabelled drug plus 365 nm light); assay type: binding, Saccharomyces cerevisiae
Experimental: as §1, §2, §3

calf thymus DNA = assay: Photobinding to native calf thymus DNA in vitro; assay type: binding
Experimental: These determinations were done in vitro and in vivo. […] The thickness of the irradiated sample was 1 mm. After irradiation, the solution was diluted by a factor of 2, and NaCl was added to a final concentration of 1 M. The DNA was precipitated with 2 volumes of cold pure ethanol. The samples were left overnight in the cold at -20° C. The precipitate was then washed by centrifugation three times with 3 ml of 70% ethanol and redissolved in 3 ml of water. The DNA recovery was checked by determination of the optical density of the solution at 260 nm.

Saccharomyces cerevisiae [4] = test system: Saccharomyces cerevisiae
Experimental: as §4, §5, §6
A Philips HPW 125 culot Edison high pressure mercury lamp was used with maximal output at the wavelength 365 nm. The irradiation dose measured by actinometry was 10 J/m^2 per sec., using the following set up: 10 ml of actinometer solution (or the cell suspension, usually 1×10^6 cells/ml), stirred continuously by a magnetic stirrer, were irradiated at room temperature in an open Petri dish of 10 cm diameter at a distance of 10 cm from the center of the light bulb which was mounted horizontally. A 2 mm thick pyrex glass sheet (20×25 cm) was placed in the center of the light beam to cut out UV light of wavelength below 340 nm. Overheating was prevented either by a continuous flow of compressed air between the light bulb and the glass or by a pyrex glass water filter of 3 cm total thickness. An accumulative irradiation dose was given to the same sample. After each dose 0.1 ml of irradiated cell suspension was taken, diluted and aliquots plated.

Saccharomyces cerevisiae [5] = assay: Repair of photoinduced lesions in yeast (repair mutants, agar holding); assay type: cell-based
Text: Biophys. Acta, 395, 393-404.
Consequently, it appears that the excision repair pathway in wild type and rad9-4 cells is essential in AHR for both compounds.

[6] = 8-MOP, 15 min, 18.9 × 10^4 ergs.mm^-2 365 nm
[7] = 8-MOP, 30 min, 37.8 × 10^4 ergs.mm^-2 365 nm
[8] = 8-MOP, 60 min, 75.6 × 10^4 ergs.mm^-2 365 nm
[9] = 8-MOP, 90 min, 113.4 × 10^4 ergs.mm^-2 365 nm
[10] = 8-MOP, 120 min, 151.2 × 10^4 ergs.mm^-2 365 nm
[11] = 15 min, 18.9 × 10^4 ergs.mm^-2 365 nm
[12] = 30 min, 37.8 × 10^4 ergs.mm^-2 365 nm
[13] = 60 min, 75.6 × 10^4 ergs.mm^-2 365 nm
[14] = 90 min, 113.4 × 10^4 ergs.mm^-2 365 nm
[15] = 120 min, 151.2 × 10^4 ergs.mm^-2 365 nm
[16] = equimolar concentration to 3-CPs
[17] = 7.5 × 10^-5, 30 min, 37.8 erg. cm^-2 365 nm (so in the source)
[18] = 7.5 × 10^-5, 60 min, 75.6 erg. cm^-2 365 nm (so in the source)
[19] = 7.5 × 10^-5, 90 min, 113.4 erg. cm^-2 365 nm (so in the source)
[20] = 7.5 × 10^-5, 120 min, 151.2 erg. cm^-2 365 nm (so in the source)
[21] = 7.5 × 10^-5, 180 min, 226.8 erg. cm^-2 365 nm (so in the source)

COc1c2occc2cc2ccc(=O)oc12 [Example 8-MOP, 8-methoxypsoralen, reference compound]
reassociation of DNA after heat denaturation (yeast DNA [1]): a fraction of the DNA is capable to renature | photoaffinity for RNA (yeast RNA): relatively low photoaffinity for RNA | cpm for 10^8 cells (yeast RNA; [6]): 7400 cpm for 10^8 cells | cpm for 10^8 cells (yeast RNA; [7]): 12920 cpm for 10^8 cells | cpm for 10^8 cells (yeast RNA; [8]): 23580 cpm for 10^8 cells | cpm for 10^8 cells (yeast RNA; [9]): 34150 cpm for 10^8 cells | cpm for 10^8 cells (yeast RNA; [10]): 44060 cpm for 10^8 cells | cpm for 10^8 cells (yeast RNA; 15-120 min, no 365 nm light): 3805 cpm for 10^8 cells | Molecules 8-MOP/μg DNA (yeast RNA; 15-120 min, no 365 nm light): 0.033 Molecules 8-MOP/μg DNA × 10^14 | μg 8-MOP/μg DNA (yeast RNA; 15-120 min, no 365 nm light): 0.12 μg 8-MOP/μg DNA × 10^-2 | Molecules 8-MOP/μg DNA (yeast RNA; [11]): 0.064 Molecules 8-MOP/μg DNA × 10^14 | μg 8-MOP/μg DNA (yeast RNA; [11]): 0.228 μg 8-MOP/μg DNA × 10^-2 | Molecules 8-MOP/μg DNA (yeast RNA; [12]): 0.11 Molecules 8-MOP/μg DNA × 10^14 | μg 8-MOP/μg DNA (yeast RNA; [12]): 0.40 μg 8-MOP/μg DNA × 10^-2 | Molecules 8-MOP/μg DNA (yeast RNA; [13]): 0.20 Molecules 8-MOP/μg DNA × 10^14 | μg 8-MOP/μg DNA (yeast RNA; [13]): 0.73 μg 8-MOP/μg DNA × 10^-2 | Molecules 8-MOP/μg DNA (yeast RNA; [14]): 0.29 Molecules 8-MOP/μg DNA × 10^14 | μg 8-MOP/μg DNA (yeast RNA; [14]): 1.05 μg 8-MOP/μg DNA × 10^-2 | Molecules 8-MOP/μg DNA (yeast RNA; [15]): 0.38 Molecules 8-MOP/μg DNA × 10^14 | μg 8-MOP/μg DNA (yeast RNA; [15]): 1.36 μg 8-MOP/μg DNA × 10^-2 | light dose dependence of binding with RNA (yeast RNA; [16]): increases linearly in the range of light doses used | induction of cytoplasmic "petite" mutations (Saccharomyces cerevisiae [2]): less reactive | cpm for 10^8 cells (yeast DNA [3]; [6]): 1161 cpm for 10^8 cells | cpm for 10^8 cells (yeast DNA [3]; [7]): 1474 cpm for 10^8 cells | cpm for 10^8 cells (yeast DNA [3]; [8]): 2805 cpm for 10^8 cells | cpm for 10^8 cells (yeast DNA [3]; [9]): 5582 cpm for 10^8 cells | cpm for 10^8 cells (yeast DNA [3]; [10]): 5572 cpm for 10^8 cells | Molecules 8-MOP/μg DNA (yeast DNA [3]; 15-120 min, no 365 nm light): 0.034 Molecules 8-MOP/μg DNA × 10^14 | cpm for 10^8 cells (yeast DNA [3]; 15-120 min, no 365 nm light): 404.75 cpm for 10^8 cells | μg 8-MOP/μg DNA (yeast DNA [3]; 15-120 min, no 365 nm light): 0.126 μg 8-MOP/μg DNA × 10^-2 | molecules linked to DNA per cell (yeast DNA [3]; 18.9×10^3 J/m^2, 5×10^-5 M): 0.5×10^6 molecules per cell | binding to DNA in vivo compared with in vitro (yeast DNA [3]; 365 nm light): much higher in the in vivo condition than in vitro | Molecules 8-MOP/μg DNA (yeast DNA [3]; [11]): 0.10 Molecules 8-MOP/μg DNA × 10^14 | μg 8-MOP/μg DNA (yeast DNA [3]; [11]): 0.36 μg 8-MOP/μg DNA × 10^-2 | Molecules 8-MOP/μg DNA (yeast DNA [3]; [12]): 0.13 Molecules 8-MOP/μg DNA × 10^14 | μg 8-MOP/μg DNA (yeast DNA [3]; [12]): 0.46 μg 8-MOP/μg DNA × 10^-2 | Molecules 8-MOP/μg DNA (yeast DNA [3]; [13]): 0.24 Molecules 8-MOP/μg DNA × 10^14 | μg 8-MOP/μg DNA (yeast DNA [3]; [13]): 0.86 μg 8-MOP/μg DNA × 10^-2 | Molecules 8-MOP/μg DNA (yeast DNA [3]; [14]): 0.48 Molecules 8-MOP/μg DNA × 10^14 | μg 8-MOP/μg DNA (yeast DNA [3]; [14]): 1.72 μg 8-MOP/μg DNA × 10^-2 | Molecules 8-MOP/μg DNA (yeast DNA [3]; [15]): 0.48 Molecules 8-MOP/μg DNA × 10^14 | μg 8-MOP/μg DNA (yeast DNA [3]; [15]): 1.72 μg 8-MOP/μg DNA × 10^-2 | light dose dependence of binding with DNA (yeast DNA [3]; [16]): increases linearly in the range of light doses used | μg 8-MOP/μDNA (calf thymus DNA; 7.5 × 10^-5, 0-180 min incub. (dark)): 0.031×10^-4 μg 8-MOP/μDNA | Binding yield 8-MOP molecules/nucleotide (calf thymus DNA; [17]): 1/900 | μg 8-MOP/μDNA (calf thymus DNA; [17]): 7.3×10^-4 μg 8-MOP/μDNA | Binding yield 8-MOP molecules/nucleotide (calf thymus DNA; [18]): 1/532 | μg 8-MOP/μDNA (calf thymus DNA; [18]): 12.4×10^-4 μg 8-MOP/μDNA | Binding yield 8-MOP molecules/nucleotide (calf thymus DNA; [19]): 1/428 | μg 8-MOP/μDNA (calf thymus DNA; [19]): 15.4×10^-4 μg 8-MOP/μDNA | Binding yield 8-MOP molecules/nucleotide (calf thymus DNA; [20]): 1/386 | μg 8-MOP/μDNA (calf thymus DNA; [20]): 17.1×10^-4 μg 8-MOP/μDNA | Binding yield 8-MOP molecules/nucleotide (calf thymus DNA; [21]): 1.256 molecules/nucleotide | μg 8-MOP/μDNA (calf thymus DNA; [21]): 25.8×10^-4 μg 8-MOP/μDNA | cpm/μg DNA (calf thymus DNA; 8-MOP 7.5 × 10^-5, 0-180 min incub. (dark)): 0.24 cpm/μg DNA | cpm/μg DNA (calf thymus DNA; 8-MOP 7.5 × 10^-5, 30 min, 37.8 erg. cm^-2 365 nm (so in the source)): 56.3 cpm/μg DNA | cpm/μg DNA (calf thymus DNA; 8-MOP 7.5 × 10^-5, 60 min, 75.6 erg. cm^-2 365 nm (so in the source)): 95.7 cpm/μg DNA | cpm/μg DNA (calf thymus DNA; 8-MOP 7.5 × 10^-5, 90 min, 113.4 erg. cm^-2 365 nm (so in the source)): 118.8 cpm/μg DNA | cpm/μg DNA (calf thymus DNA; 8-MOP 7.5 × 10^-5, 120 min, 151.2 erg. cm^-2 365 nm (so in the source)): 131.5 cpm/μg DNA | cpm/μg DNA (calf thymus DNA; 8-MOP 7.5 × 10^-5, 180 min, 226.8 erg. cm^-2 365 nm (so in the source)): 198.5 cpm/μg DNA | photosensitization of cells compared with 3-CPs or angelicin (Saccharomyces cerevisiae [4]): more photosensitized | survivors (Saccharomyces cerevisiae [4]; saline, 5 min): 10^-5 | dark repair by strain defective in excision (Saccharomyces cerevisiae [5]; agar holding): unable to perform a dark repair | interaction between rad2 and rad9 repair pathways (Saccharomyces cerevisiae [5]; plus 365 nm light): additive interaction | kinetics of agar holding recovery (AHR) (Saccharomyces cerevisiae [5]; wild-type cells): same kinetics of AHR
